This is an account of results in ChEMBL document CHEMBL2401681 (Bioorg Med Chem Lett, 2013).

In experiment [1] the target is T1, Estrogen receptor beta (Homo sapiens, UniProt Q92731). In words: Agonist activity at human Gal4-ERbeta by reporter gene assay.
Experiment [2] addresses T2, Estrogen receptor (Homo sapiens, UniProt P03372).
T2 sequence (P03372 whole entry): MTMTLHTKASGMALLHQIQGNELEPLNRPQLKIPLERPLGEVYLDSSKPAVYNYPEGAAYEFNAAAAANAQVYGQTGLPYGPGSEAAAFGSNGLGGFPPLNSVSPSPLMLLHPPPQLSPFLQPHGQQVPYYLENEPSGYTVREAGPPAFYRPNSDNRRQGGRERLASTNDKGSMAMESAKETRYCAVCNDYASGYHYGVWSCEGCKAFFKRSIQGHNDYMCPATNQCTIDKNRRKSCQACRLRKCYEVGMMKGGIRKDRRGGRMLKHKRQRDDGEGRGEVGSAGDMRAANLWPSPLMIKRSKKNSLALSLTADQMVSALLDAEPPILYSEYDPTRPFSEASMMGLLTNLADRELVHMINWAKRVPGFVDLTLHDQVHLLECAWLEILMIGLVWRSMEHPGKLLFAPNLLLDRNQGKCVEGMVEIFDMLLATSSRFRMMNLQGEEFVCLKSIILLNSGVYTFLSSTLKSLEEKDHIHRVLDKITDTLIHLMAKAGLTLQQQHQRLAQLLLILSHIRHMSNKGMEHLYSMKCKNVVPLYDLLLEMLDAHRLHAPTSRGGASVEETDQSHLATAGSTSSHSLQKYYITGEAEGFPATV
The experiment in a line: Agonist activity at human Gal4-ERalpha by reporter gene assay. On the technique in general: A reporter such as luciferase makes a cellular process visible.

Experiment [3] concerns the target T2, Estrogen receptor. In words: Antagonist activity at human Gal4-ERalpha assessed as inhibition of 17beta-estradiol-induced effect by reporter gene assay.
Experiment [4] has as its target T1, Estrogen receptor beta. In words: Antagonist activity at human Gal4-ERbeta assessed as inhibition of 17beta-estradiol-induced effect by reporter gene assay.
Experiment [5] has as its target T3, Estrogen receptor (Homo sapiens) (UniProt P03372).
T3 sequence (whole entry): T2 sequence (P03372 whole entry)
The experiment in a line: Agonist activity at human Gal4-ERalpha at 10 uM by reporter gene assay relative to 17beta-estradiol.

For experiment [6], the target named is T3, Estrogen receptor (Homo sapiens). Particulars: at 3 µM; call rule not given here.
In the next experiment the target is T4, Androgen receptor (Homo sapiens, UniProt P10275).
T4 sequence (P10275 whole entry): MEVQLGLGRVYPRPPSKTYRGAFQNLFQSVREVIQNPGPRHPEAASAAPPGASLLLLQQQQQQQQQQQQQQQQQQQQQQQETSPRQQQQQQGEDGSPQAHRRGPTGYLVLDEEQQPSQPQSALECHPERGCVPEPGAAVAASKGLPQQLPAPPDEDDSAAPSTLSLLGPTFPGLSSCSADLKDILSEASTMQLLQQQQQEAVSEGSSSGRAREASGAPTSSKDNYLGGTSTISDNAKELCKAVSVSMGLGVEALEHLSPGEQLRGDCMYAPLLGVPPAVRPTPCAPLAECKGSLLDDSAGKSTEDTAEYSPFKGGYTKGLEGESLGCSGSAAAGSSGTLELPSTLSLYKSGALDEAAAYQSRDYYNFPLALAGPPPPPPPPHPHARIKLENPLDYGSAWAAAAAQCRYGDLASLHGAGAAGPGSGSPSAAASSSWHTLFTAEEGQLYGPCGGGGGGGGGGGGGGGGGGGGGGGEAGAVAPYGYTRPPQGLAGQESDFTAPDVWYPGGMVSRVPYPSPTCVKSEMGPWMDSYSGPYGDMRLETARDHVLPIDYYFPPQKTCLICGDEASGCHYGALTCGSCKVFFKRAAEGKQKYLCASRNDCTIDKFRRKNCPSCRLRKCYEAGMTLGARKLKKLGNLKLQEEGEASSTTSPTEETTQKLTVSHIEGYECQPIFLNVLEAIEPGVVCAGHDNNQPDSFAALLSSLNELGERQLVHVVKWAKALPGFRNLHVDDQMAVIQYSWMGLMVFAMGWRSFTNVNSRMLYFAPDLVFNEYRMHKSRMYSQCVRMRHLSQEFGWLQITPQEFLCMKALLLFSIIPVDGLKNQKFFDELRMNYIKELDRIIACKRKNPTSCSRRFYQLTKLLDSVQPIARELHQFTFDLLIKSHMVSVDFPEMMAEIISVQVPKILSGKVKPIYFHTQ
The experiment in a line: Antagonist activity at human pSG5-AR assessed as inhibition of dihydrotestosterone-induced effect by reporter gene assay.

In experiment [7] the target is T1, Estrogen receptor beta. Conditions: at 3 µM.
Description: Antagonist activity at human Gal4-ERbeta assessed as inhibition of 17beta-estradiol-induced effect at 3 uM by reporter gene assay

T1 sequence (Q92731 whole entry, the tested form may be a part): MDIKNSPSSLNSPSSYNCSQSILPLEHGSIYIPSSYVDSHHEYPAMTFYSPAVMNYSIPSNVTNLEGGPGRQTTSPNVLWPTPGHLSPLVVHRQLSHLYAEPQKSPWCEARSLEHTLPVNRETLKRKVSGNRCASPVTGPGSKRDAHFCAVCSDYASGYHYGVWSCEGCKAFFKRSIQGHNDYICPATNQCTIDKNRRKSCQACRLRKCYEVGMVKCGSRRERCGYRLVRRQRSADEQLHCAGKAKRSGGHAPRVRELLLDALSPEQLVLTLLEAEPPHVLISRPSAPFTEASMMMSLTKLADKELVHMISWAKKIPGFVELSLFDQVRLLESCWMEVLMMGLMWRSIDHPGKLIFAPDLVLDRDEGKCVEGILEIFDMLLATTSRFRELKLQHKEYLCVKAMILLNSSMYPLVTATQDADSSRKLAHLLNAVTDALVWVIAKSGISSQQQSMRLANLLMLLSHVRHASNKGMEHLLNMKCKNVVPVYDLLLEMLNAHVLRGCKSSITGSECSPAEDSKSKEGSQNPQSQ

Broadly, the EC50 is the concentration giving half of the maximal effect. Take `CCCCC(CCCC)(c1ccc(O)c(CCC)c1)c1ccc(O)c(CCC)c1`: the EC50 entry at Estrogen receptor beta [1] and on Estrogen receptor [2] was “Not Active” throughout.
As a reminder, the IC50 is the midpoint of a concentration-inhibition curve. Turning to `Cc1cc(C2(c3ccc(O)c(C)c3)CCCC2)ccc1O`, the IC50 amounted to 0.084 µM at Estrogen receptor [3] and 0.77 µM on Estrogen receptor beta [4] (read-out: IC50). Besides, the 50% effective concentration (EC50) entry on Estrogen receptor beta [1] and at Estrogen receptor [2] was “Not Active” throughout.
With `CCCC(CCC)(c1ccc(O)cc1)c1ccc(O)cc1`, the IC50 at Estrogen receptor [3] came out at 0.099 µM; on Estrogen receptor beta [4] (read-out: IC50) it was 2.2 µM. Further, at Estrogen receptor [2], the EC50 entry is listed as “Not Active”.
In the case of `CCCC(CCC)(c1ccc(O)c(CC)c1)c1ccc(O)c(CC)c1`, the IC50 was 0.49 µM on Estrogen receptor [3] and 2.6 µM at Estrogen receptor beta [4] (read-out: IC50). In addition, the EC50 result on Estrogen receptor beta [1] and on Estrogen receptor [2] was “Not Active” each time.
Consider `CCc1cc(C(CC)(CC)c2ccc(O)c(CC)c2)ccc1O`, for which the IC50 at Estrogen receptor [3] came to 0.23 µM; on Estrogen receptor beta [4] (read-out: IC50), 1.3 µM. For the same molecule, the EC50 entry on Estrogen receptor beta [1] and on Estrogen receptor [2] was “Not Active” throughout.
For orientation: inhibition means the percentage by which the read-out fell short of the control. As for `Cc1cc(Cc2ccc(O)c(C)c2)ccc1O`, in experiment [5], the Activity was determined as 23%. In addition, at Estrogen receptor beta [4], the IC50 entry was “Not Active”. In addition, on Estrogen receptor beta [1] (read-out: EC50), the EC50 amounted to 5.5 µM. For the same molecule, the inhibition in experiment [6] turned out to be 26%.
`CC(C)(c1ccc(O)cc1)c1ccc(O)cc1` [BISPHENOL A]: the Activity in experiment [5] came out at 33%. Further, at Androgen receptor, the IC50 worked out at 5.9 µM. The values for the inhibition (against Estrogen receptor beta [7]; in experiment [6]) were 25% and 38%, respectively.
With `CCCCC(CCCC)(c1ccc(O)c(C)c1)c1ccc(O)c(C)c1`, the IC50 on Estrogen receptor [3] is 0.014 µM; at Estrogen receptor beta [4] (read-out: IC50), 0.15 µM. The EC50 result at Estrogen receptor beta [1] and on Estrogen receptor [2] was “Not Active” throughout.
In turn, `Cc1cc(C(C)(C)c2ccc(O)cc2)ccc1O` displayed an Activity in experiment [5] of 26%. The values for the inhibition (on Estrogen receptor beta [7]; in experiment [6]) were 26% and 48%, respectively.
For the molecule `CCC(CC)(c1ccc(O)cc1)c1ccc(O)cc1`, the IC50 came to 0.086 µM at Estrogen receptor [3] and 0.093 µM at Estrogen receptor beta [4] (read-out: IC50). The EC50 entry at Estrogen receptor [2] is on record as “Not Active”.
Regarding `Cc1cc(C2(c3ccc(O)c(C)c3)CCCCC2)ccc1O`, the IC50 at Estrogen receptor [3] is 0.23 µM; on Estrogen receptor beta [4] (read-out: IC50) it was 0.79 µM. Besides, the EC50 result at Estrogen receptor beta [1] and at Estrogen receptor [2] was “Not Active” in each case.
On to `Oc1ccc(C2(c3ccc(O)cc3)CCCC2)cc1`, for which the IC50 on Estrogen receptor [3] came out at 0.17 µM; at Estrogen receptor beta [4] (read-out: IC50), 0.27 µM. Besides, the EC50 result at Estrogen receptor beta [1] and on Estrogen receptor [2] was “Not Active” each time.
As for `CCCc1cc(C(CC)(CC)c2ccc(O)c(CCC)c2)ccc1O`, the EC50 entry at Estrogen receptor beta [1] and at Estrogen receptor [2] was “Not Active” in each case.
As for `CCCc1cc(C(CCC)(CCC)c2ccc(O)c(CCC)c2)ccc1O`, the EC50 entry on Estrogen receptor beta [1] and at Estrogen receptor [2] was “Not Active” each time.
Turning to `CCC(CC)(c1cc(C)c(O)c(C)c1)c1cc(C)c(O)c(C)c1`, the IC50 is 0.074 µM on Estrogen receptor [3] and 0.3 µM at Estrogen receptor beta [4] (read-out: IC50). Also, the 50% effective concentration (EC50) result on Estrogen receptor beta [1] and on Estrogen receptor [2] was “Not Active” each time.
On to `Oc1ccc(Cc2ccc(O)cc2)cc1`, for which the inhibition against Estrogen receptor beta [7] turned out to be 24%; in experiment [6], 35%. In addition, the EC50 on Estrogen receptor beta [1] (read-out: EC50) was 1.9 µM; on Estrogen receptor [2] (read-out: EC50), 0.91 µM.
In the case of `CCC(CC)(c1ccc(O)cc1)c1ccc(O)c(C)c1`, the IC50 on Estrogen receptor [3] was determined as 0.11 µM; at Estrogen receptor beta [4] (read-out: IC50) it was 0.38 µM. Also, the EC50 entry on Estrogen receptor [2] was “Not Active”.
Consider `CCCC[Si](CCCC)(c1ccc(O)c(C)c1)c1ccc(O)c(C)c1`, for which the IC50 result is “Not Active” on Estrogen receptor beta [4] and 8.2 µM at Androgen receptor. Besides, the EC50 result at Estrogen receptor beta [1] and on Estrogen receptor [2] was “Not Active” in each case.
As to `CCCCC(CCCC)(c1ccc(O)c(CC)c1)c1ccc(O)c(CC)c1`, the IC50 at Estrogen receptor [3] stood at 2.9 µM; at Estrogen receptor beta [4] (read-out: IC50) it was 4.5 µM. Besides, the EC50 result at Estrogen receptor beta [1] and at Estrogen receptor [2] was “Not Active” each time.
Regarding `CCCCC(CCCC)(c1ccc(O)cc1)c1ccc(O)cc1`, the IC50 on Estrogen receptor [3] worked out at 0.079 µM; at Estrogen receptor beta [4] (read-out: IC50) it was 0.18 µM. Also, the concentration giving a half-maximal response (EC50) entry on Estrogen receptor beta [1] and on Estrogen receptor [2] was “Not Active” in each case.
In the case of `CCC(CC)(c1ccc(N)c(C)c1)c1ccc(O)c(C)c1`, the IC50 on Estrogen receptor [3] was found to be 0.098 µM; on Estrogen receptor beta [4] (read-out: IC50), 0.043 µM; on Androgen receptor, 5.4 µM. Further, the concentration giving a half-maximal response (EC50) result on Estrogen receptor beta [1] and at Estrogen receptor [2] was “Not Active” each time.
For the molecule `CCC(CC)(c1ccc(O)c(C)c1)c1ccc(O)c(C)c1`, the IC50 on Estrogen receptor [3] is 0.025 µM; at Estrogen receptor beta [4] (read-out: IC50), 0.26 µM; at Androgen receptor, 4.5 µM. Also, the EC50 entry at Estrogen receptor [2] was “Not Active”.
As to `Cc1cc(C(C)(C)c2ccc(O)c(C)c2)ccc1O`, the Activity in experiment [5] was 31%.
For the molecule `Oc1ccc(C2(c3ccc(O)cc3)CCCCC2)cc1`, the IC50 on Estrogen receptor [3] turned out to be 0.52 µM; on Estrogen receptor beta [4] (read-out: IC50), 0.56 µM. Also, the EC50 entry at Estrogen receptor beta [1] and on Estrogen receptor [2] was “Not Active” in each case.
For the molecule `CC[Si](CC)(c1ccc(O)c(C)c1)c1ccc(O)c(C)c1`, the IC50 at Estrogen receptor [3] is 0.072 µM; on Estrogen receptor beta [4] (read-out: IC50), 0.8 µM; at Androgen receptor, 1.9 µM. The EC50 result on Estrogen receptor beta [1] and on Estrogen receptor [2] was “Not Active” throughout.
Take `CCCC(CCC)(c1ccc(O)c(C)c1)c1ccc(O)c(C)c1`: the IC50 was found to be 0.0049 µM on Estrogen receptor [3], 0.14 µM at Estrogen receptor beta [4] (read-out: IC50) and 25 µM on Androgen receptor. Besides, the EC50 entry on Estrogen receptor beta [1] and on Estrogen receptor [2] was “Not Active” in each case.
